Experimental data published in paper PMC11203576 (International Journal of Molecular Sciences, 2024).

Molecular target: MVL (rMVL) (Microcystis viridis, UniProt Q9RHG4)
Assay type: binding

Sequence of MVL (rMVL) (Q9RHG4 2-114 limits assumed): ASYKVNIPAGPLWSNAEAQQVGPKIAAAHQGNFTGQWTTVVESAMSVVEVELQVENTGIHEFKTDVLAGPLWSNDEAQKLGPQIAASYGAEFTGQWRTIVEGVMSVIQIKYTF

OC[C@H]1OC(O)[C@H](O)[C@@H](O)[C@H]1O (stereo partly shown) [galactose]
% SPR signal retained at 100 mM: ~ 40%
